Reference: EP4458804A1, “METHOD FOR PRODUCING AN OBJECT, PHENALEN-1-ONE COMPOUND AND USE THEREOF” (TriOptoTec GmbH, priority 2023, dated 2024)

Experiments:
[1] = Leaching test A: screening immersion 24 h, UV-VIS of supernatant (Beispiel 10 A); type: physicochemical; set-up: Abs. nach Auswaschen: unit not given here; details: medium Wasser; for Berechneter Verlust in %: Rezeptur 1 nach Beispiel 1; for Abs. nach Auswaschen: Rezeptur 1 nach Beispiel 1, supernatant
Protocol: Um das Auswaschen der verschiedenen Farbstoffe in den Kunststofffolien zu beurteilen, wurde ein Immersionstest in deionisiertem Wasser mit einem pH-Wert von (6 ± 1) (oder gegebenenfalls anderen Lösungsmitteln) und einer Wassertemperatur von (22 ± 3) °C für 24 Stunden durchgeführt.
Dazu wurde ein Folienstück definierter Größe (3 cm x 3 cm) imprägniert (nach Rezeptur 1, Beispiel 1) und anschließend für 24 Stunden in eine definierte Menge deionisiertem Wasser (12,0 mL) gegeben und durch eine Schüttelplatte in Bewegung gehalten. Nach der angegeben Immersionszeit wurde die Folie entnommen und der Überschuss im UV-VIS Spektrometer vermessen, um die ausgewaschene Menge an Farbstoff zu bestimmen. Die Menge wird durch die definierte Größe der Folie und definierte Flüssigkeitsmenge auf einen Quadratzentimeter zurückgerechnet.
Dieser Immersionstest diente dazu, das Auswaschverhalten verschiedener Farbstoffe aus verschiedenen Kunststofffolien zu beurteilen. Weiter sollte er dabei helfen, verschiedene Farbstoffklassen oder verschiedene Farbstoffderivate einer Farbstoffklasse bezüglich dieser Charakteristik miteinander zu vergleichen.
Die zugeschnittenen Folien werden in einem geeigneten Behälter vollständig mit dem Prüfmedium (typischerweise deionisiertes Wasser) bedeckt. Anschließend wird der Behälter zugedeckt und auf die Schüttelplatte aufgebracht. Bei geringer Geschwindigkeit der Platte wird für 24 Stunden gewartet. Nach der Immersion wurden 3 mL des Überstandes durch Absorptionsspektroskopie vermessen.
Die Auswertung erfolgte über das Verhältnis der max. Absorptionswerte einer reinen Farbstofflösung definierter Konzentration und des vermessenen Überstandes. Die Ergebnisse sind in Tabelle 50 dargestellt. Tabelle 50: Auswaschverhalten verschiedener Photokatalysatoren nach Immersionstest A

[2] = Incorporation of photocatalysts into TPU films versus process time, absorption spectroscopy against blank film (Beispiele 7a-9b); type: physicochemical; details: Rezeptur 1
Protocol: Im nächsten Schritt wurde die Verwendbarkeit der verschiedene Photokatalysatorklassen, ausgewählt aus Phenalen-1-on-Derivaten, Curcumin-Derivaten und Porphycen-Derivaten, mit unterschiedlichen Eigenschaften - von neutral unpolar bis ionisch polar - auf Ihre Verwendbarkeit und Wirkung im Verfahren untersucht.
Zur Beurteilung der optimalen Prozesszeit bei Einsatz der Photokatalysatoren, wurden TPU Folienstücke nach Beschreibung in Beispiel 4 zu je 1, 2, 5 und 10 min in den Imprägnierlösungen behandelt, gegebenenfalls auch 30 und 60 min bei undeutlichen Ergebnissen.
Als Basisformulierung wurde Rezeptur 1 nach Beispiel 2 verwendet.
Nach der angegebenen Prozesszeit wurden die Folie entnommen, mit Wasser gewaschen und für 1h bei 40°C getrocknet/abgelüftet.
Die Folien wurden durch Absorptionsspektroskopie gegen ein Blank-Folienstück direkt vermessen, beim Maximum der Absorption des Photokatalysators. Dabei ergaben sich in Abhängigkeit der Prozesszeit folgende Werte, die in den Tabellen 40 bis

[3] = Comparative examples 23-25: impregnation of unsuitable plastics or with a fluorescent dye, visual evaluation; type: physicochemical
Protocol: Die Farbstoffkonzentration in der Imprägnierlösung betrug jeweils 1 mM bei Phenalen-1-on- und Curcuminderivaten, 0,1 mM bei Prophycenderivaten.
Es wurden 0,2 mm starke Polycarbonatfolien eingesetzt und mit Imprägnierlösungen enthaltend die Photokatalysatoren F-24b, F-64a oder F-73 behandelt.
Es wurden TPU Folien eingesetzt und mit einer Imprägnierlösung enthaltend den Farbstoff 2-Chloro-6-(3-hydroxypropylamino)-1-phenalenon (CAS 113722-81-9) behandelt.

S.aureus ATCC 6538 [4] = assay: Antibacterial activity of impregnated films, modified ISO 22196 with illumination (Beispiele 11-16, 25); type: cell-based
Excerpt: Die Bestimmung der antimikrobiellen Aktivität erfolgte nach einer modifizierten Version der ISO 22196:2011-08 ("Messung von antibakterieller Aktivität auf Kunststoff- und anderen porenfreien Oberflächen", Ausgabedatum: 2011-08).
Bei der Testdurchführung wurde ein dünner Flüssigkeitsfilm, in dem die Bakterien enthalten sind (1,25 x 10^4 /cm^2), direkt auf die Probenkörper (3 x 3 cm) aufgebracht. Direkt nach Beimpfung wurden von der Nullprobe die Bakterien von den Probenkörperoberflächen mittels Ultraschall und Vortexen abgelöst und die Keimzahl (KBE (engl. CFU), Kolonie-bildende Einheit) bestimmt (t0-Wert).
Nach 4h wurden überlebende Bakterien von den Probenkörperoberflächen mittels Ultraschall und Vortexen abgelöst und die Keimzahl bestimmt (t4-Wert).
Im Unterschied zu der in der ISO 22196:2011-08 beschreibenen Methode wurde das Inokulum nicht mit einer Folie abgedeckt und die Inkubationszeit wurde von 24 auf 4 Stunden reduziert. Weiterhin wurden die Probenkörper der Proben 3 und 4 mit Licht der Intensität 20mW/cm2 für 10min belichtet, um eine biozide Wirkung nach Bestrahlung mit elektromagnetischer Strahlung zu bestimmen.
Verwendet wurden TPU Folienstücke, die nach dem in Beispiel 4 beschriebenen Verfahren mit Rezeptur 1 behandelt wurden. Rezeptur 1 wurde hergestellt nach Beispiel 2. […] Der Test wurde in Anlehnung an ISO 22196 nach oben beschriebener Methode durchgeführt.
TPU-Folienstücke wurden ebenfalls nach dem in Beispiel 4 beschriebenen Verfahren mit verschiedenen Rezepturen behandelt, die gemäß Beispiel 2 hergestellt wurden. Die Farbstoffkonzentration in der Imprägnierlösung betrug jeweils 1 mM F-24b. Der Test wurde in Anlehnung an ISO 22196 nach oben beschriebener Methode durchgeführt.
Die Farbstoffkonzentration in der Imprägnierlösung betrug jeweils 1 mM.
Die Photokatalysator-Konzentration von F-24b wurde variiert.
Es wurde ein Bakterientest in Anlehnung an ISO 22196 nach oben beschriebener Methode durchgeführt.

S.aureus ATCC 6538 [5] = assay: as above; type: cell-based; details: Beispiel 14; TPU film; Rezeptur 1 (nach Beispiel 1); 1 mM photocatalyst in impregnation solution; light 20mW/cm2 10min
[6] = Two-component system (kit of parts): impregnation of TPU films, visual colouring and resistance to rubbing/washing (Beispiel 6a/6b); type: physicochemical; details: TPU Folien; for Abreiben / Auswaschen der Färbung: feuchter Schwamm, Wasser
Excerpt: Um eine Mehrkomponenten-System bereitzustellen, bei dem vorzugsweise flüchtigere Hilfskomponenten, die gegebenenfalls regelmäßiger im Prozess ergänzt werden müssen, in einer separaten Komponente bereitgestellt werden können, wurde zunächst folgendes 2K-System getestet.
Grundkomponente (A): Eine Mischung aus 40,0% w/w Aceton, 30,0% w/w Isopropanol und […] w/w Wasser wurden homogen vermengt. Die Mischung war dicht verschlossen > 12 Monate bei Raumtemperatur lagerbar.
Zusatzkomponente (B): Eine Mischung aus 3,0% w/w Phenoxyethanol, 3,0% w/w EDTA und 0,1 bis 2,0 % Photokatalysator in Wasser wurden homogen verrührt. Die Mischung war dicht verschlossen in dunklen Flaschen > 6 Monate bei Raumtemperatur lagerbar.
Beide Lösungen wurden vor dem Prozess zu gleichen Teilen gemischt, gefolgt von einer 1:5 Verdünnung mit Wasser. Nach guter Durchmischung war die Lösung gebrauchsfertig.
Bei F-64a und F-73 war eine schwache Gelb- bzw.
Grundkomponente (A) enthielt eine Mischung aus 30,0% w/w Dimethylsuccinat, 33,0% w/w 1,2-Propandiol, 12,0% w/w Tween 20 und 25,0 % Wasser.
Zusatzkomponente (B) enthielt eine Mischung aus 2,0 Gew.-% Phenoxyethanol, 2,0 Gew.-% EDTA und 0,1 Gew.-% bis 1,6 Gew.-% Photokatalysator, jeweils bezogen auf das Gesamtgewicht der Zusatzkomponente (B), wobei die entsprechenden Bestandteile in Wasser gelöst wurden und anschließend homogen verrührt wurden.
Die Komponenten wurden vor Gebrauch im Verhältnis A zu B 2:1 gemischt, gefolgt von einer 1:1 Verdünnung mit Wasser. Nach guter Durchmischung war die Lösung gebrauchsfertig.

[7] = TPU Folie, Beispiel 7d, Tabelle 43
[8] = Beispiel 7a neutral Phenalen-1-one, TPU film, process time 1 min, absorption at photocatalyst maximum vs blank film
[9] = Beispiel 7a neutral Phenalen-1-one, TPU film, process time 2 min
[10] = Beispiel 7a neutral Phenalen-1-one, TPU film, process time 5 min
[11] = Beispiel 7a neutral Phenalen-1-one, TPU film, process time 10 min
[12] = TPU Folie, Beispiel 8a, Tabelle 44
[13] = Beispiel 9a neutral Porphycenderivate mit Hydroxyfunktion, TPU film, process time 10 min

9-Acetoxy-2,7,12,17-tetra-(beta-methoxyethyl)porphycen [F-66]
Berechneter Verlust in % ([1]; plastic TPU): 2,0%
Abs. nach Auswaschen ([1]; plastic TPU): 0,021
Abs. 1 min ([2]; Beispiel 9a, TPU film, process time 1 min, used as 0,1 mM Lösung): 0,008
Abs. 2 min ([2]; Beispiel 9a, TPU film, process time 2 min, used as 0,1 mM Lösung): 0,020
Abs. 5 min ([2]; Beispiel 9a, TPU film, process time 5 min, used as 0,1 mM Lösung): 0,044
Abs. 10 min ([2]; Beispiel 9a, TPU film, process time 10 min, used as 0,1 mM Lösung): 0,058

O=C1C(Cl)=Cc2ccc(NCCCO)c3cccc1c23 [2-Chloro-6-(3-hydroxypropylamino)-1-phenalenon, reference compound]
Färbung der Folie ([3]; TPU Folien, 30 min Einwirkzeit): homogen pink gefärbte Folien
Entfernbarkeit der Färbung ([3]; TPU Folien, Abreiben mit feuchtem Tuch, Waschen mit Wasser): weder durch Abreiben mit einem feuchten Tuch noch durch Waschen mit Wasser entfernt
photodynamische Inaktivierung von S.aureus gegenüber den Kontrollen (S.aureus ATCC 6538 [4]; TPU Folien dyed with the fluorescent dye (Beispiel 25)): keine photodynamische Inaktivierung

O=C1C(S(=O)(=O)O)=Cc2cccc3cccc1c23 [F-01a]
Log10 Reduktion Hauptprobe (S.aureus ATCC 6538 [5]): 1,4 ± 0,4 log10

O=C1C=Cc2cc(S(=O)(=O)O)cc3cccc1c23 [F-01b]
Abs. 10 min [2, 7]: 0,008
Abs. 30 min [2, 7]: 0,011
Abs. 60 min [2, 7]: 0,065

CCOC1=CC(=O)c2cccc3cccc1c23 [F-02]
Berechneter Verlust in % ([1]; plastic Surlyn): 2,7%
Abs. nach Auswaschen ([1]; plastic Surlyn): 0,009
Abs. 1 min [2, 7]: 0,125
Abs. 2 min [2, 7]: 0,229
Abs. 5 min [2, 7]: 0,475
Abs. 10 min [2, 7]: 0,590

NCCCOC1=CC(=O)c2cccc3cccc1c23 [F-08]
Log10 Reduktion Hauptprobe (S.aureus ATCC 6538 [4]; Beispiel 14, TPU film, Rezeptur 1 (nach Beispiel 1), 1 mM photocatalyst in impregnation solution, light 20mW/cm2 10min): 4,0 ± 0,3 log10
Abs. 1 min [2, 8]: 0,003
Abs. 2 min [2, 9]: 0,015
Abs. 5 min [2, 10]: 0,016
Abs. 10 min [2, 11]: 0,023

NCCOc1ccc2c3c(cccc13)C=CC2=O [F-09]
Abs. 1 min [2, 8]: 0,227
Abs. 2 min [2, 9]: 0,158
Abs. 5 min [2, 10]: 0,123
Abs. 10 min [2, 11]: 0,263

NCCCOc1ccc2cccc3c2c1C(=O)C=C3 [F-10]
Abs. 1 min [2, 8]: 0,044
Abs. 2 min [2, 9]: 0,011
Abs. 5 min [2, 10]: 0,062
Abs. 10 min [2, 11]: 0,087

O=C1C(COc2ccc(O)cc2)=Cc2cccc3cccc1c23 [F-12]
Abs. 1 min [2, 8]: 0,108
Abs. 2 min [2, 9]: 0,349
Abs. 5 min [2, 10]: 0,411
Abs. 10 min [2, 11]: >1

COC(=O)C(C)Oc1ccc(OCC2=Cc3cccc4cccc(c34)C2=O)cc1 (stereo not shown) [F-19a]
Abs. 1 min [2, 8]: >1
Abs. 2 min [2, 9]: >1
Abs. 5 min [2, 10]: >1
Abs. 10 min [2, 11]: >1

CC(Oc1ccc(OCC2=Cc3cccc4cccc(c34)C2=O)cc1)C(=O)O (stereo not shown) [F-20a]
Abs. 1 min [2, 8]: 0,020
Abs. 2 min [2, 9]: 0,014
Abs. 5 min [2, 10]: 0,020
Abs. 10 min [2, 11]: 0,035

NCCOc1ccc(/C=C/C(=O)CC(=O)/C=C/c2ccc(OCCN)cc2)cc1 [F-64a]
Imprägnierung / Färbung der Folie ([6]; 2K-System Beispiel 6a (Aceton/Isopropanol)): schwache Gelb- bzw. Blaufärbung der Folie
Abreiben / Auswaschen der Färbung ([6]; 2K-System Beispiel 6a): weder mit einem feuchten Schwamm abreiben noch mit Wasser auswaschen ließ
Imprägnierung / Färbung der Folie ([6]; 2K-System Beispiel 6b (Dimethylsuccinat/1,2-Propandiol/Tween 20)): schwache Gelb- bzw. Blaufärbung der Folie
Abreiben / Auswaschen der Färbung ([6]; 2K-System Beispiel 6b): weder mit einem feuchten Schwamm abreiben noch mit Wasser auswaschen ließ
Verfärbung ([3]; 0,2 mm starke Polycarbonatfolien, 60 min Einwirkzeit): keine Verfärbung
Abs. 10 min [2, 12]: 0,55
Log10 Reduktion Hauptprobe (S.aureus ATCC 6538 [5]): 2,6 ± 1,7 log10

NCCOc1ccc(/C=C/C(=O)C(C(=O)/C=C/c2ccc(OCCN)cc2)c2ccccc2)cc1 [F-64c]
Abs. 5 min [2, 12]: 0,61
Abs. 10 min [2, 12]: >1

COc1cc(/C=C/C(=O)CC(=O)/C=C/c2cc(Br)c(OCCN)c(OC)c2)cc(Br)c1OCCN [F-65]
Abs. 1 min [2, 12]: 0,08
Abs. 10 min [2, 12]: 0,87
Log10 Reduktion Hauptprobe (S.aureus ATCC 6538 [5]): 1,3 ± 0,1 log10

COCCC1=Cc2nc1ccc1[nH]c(cc1CCOC)c1nc(c(OC)cc3[nH]c2cc3CCOC)C(CCOC)=C1 [F-68]
Abs. 10 min [2, 13]: 1,01
Abs. 30 min ([2]; Beispiel 9a neutral Porphycenderivate mit Hydroxyfunktion, TPU film, process time 30 min): >1
Abs. 60 min ([2]; Beispiel 9a neutral Porphycenderivate mit Hydroxyfunktion, TPU film, process time 60 min): >1

COCCC1=Cc2nc1ccc1[nH]c(cc1CCOC)c1nc(c(OCCCN)cc3[nH]c2cc3CCOC)C(CCOC)=C1 [F-71]
Abs. 1 min ([2]; Beispiel 9a neutral Porphycenderivate mit Hydroxyfunktion, TPU film, process time 1 min): 0
Abs. 2 min ([2]; Beispiel 9a neutral Porphycenderivate mit Hydroxyfunktion, TPU film, process time 2 min): 0
Abs. 5 min ([2]; Beispiel 9a neutral Porphycenderivate mit Hydroxyfunktion, TPU film, process time 5 min): 0,032
Abs. 10 min [2, 13]: 0,04
Abs. 10 min ([2]; Beispiel 9b cationic Porphycenderivate, TPU film, process time 10 min): 0,023
Abs. 30 min ([2]; Beispiel 9b cationic Porphycenderivate, TPU film, process time 30 min): 0,062
Abs. 60 min ([2]; Beispiel 9b cationic Porphycenderivate, TPU film, process time 60 min): 0,114

COCCC1=Cc2nc1ccc1[nH]c(cc1CCOC)c1nc(c(OCCC(NC(=O)OC(C)(C)C)C(=O)O)cc3[nH]c2cc3CCOC)C(CCOC)=C1 (stereo not shown) [F-78b]
Abs. 10 min [2, 13]: 0,670
